# Assay results: patent publication US20100062131A1, “FLAVAN-3-OL CONTAINING FOODSTUFFS” (CONOPCO, INC., D/B/A UNILEVER, priority 2008, published 2010)
# Target: T1, human bitter receptor TAS2R39 (Homo sapiens, UniProt P59534)
# T1 construct: expressed in transfected cells; host or cells: HEK293 (tetracycline/doxycycline-inducible expression; blasticidin, geneticin and hygromycin selection)
# T1 sequence (P59534 1-338): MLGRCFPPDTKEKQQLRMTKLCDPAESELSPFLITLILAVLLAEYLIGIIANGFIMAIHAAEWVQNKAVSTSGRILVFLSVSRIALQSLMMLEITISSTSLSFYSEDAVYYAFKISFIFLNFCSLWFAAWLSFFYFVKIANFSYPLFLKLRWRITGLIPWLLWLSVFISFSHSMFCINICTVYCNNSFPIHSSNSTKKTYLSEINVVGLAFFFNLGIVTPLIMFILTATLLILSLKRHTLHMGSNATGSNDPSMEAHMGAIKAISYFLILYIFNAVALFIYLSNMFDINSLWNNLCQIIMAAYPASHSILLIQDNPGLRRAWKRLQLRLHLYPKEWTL
# Assay: Inhibition of ECG stimulation of TAS2R39, intracellular calcium (Fluo4-AM fluorescence) assay
# Assay type: cell-based
# Settings: for % inhibition of TAS2R39: HEK293 cells expressing TAS2R39, test solution 0.5 mM ECG and 10 mM test compound in Tyrodes buffer, percentage reduction of ΔF vs ECG alone; for effectiveness as inhibitor of TAS2R39 compared with gallic acid: comparison of % inhibition in Table 1 with gallic acid
# Text: Activation of the bitter receptor TAS2R39 causes the release of calcium from the endoplasmic reticulum of those cells containing the receptor. Therefore, changes in calcium levels within cells expressing TAS2R39 serves as a proxy marker for the activity of the receptor. An assay was used to assess the stimulation of TAS2R39 by the flavan-3-ol epicatechin gallate (ECG) and to assess the inhibition of this stimulation of TAS2R39 through the use of various compounds as follows:
# HEK293 cells expressing the human bitter receptor TAS2R39 and a G-protein that allows coupling to a calcium readout system were maintained in Dulbecco's Modified Eagle's Medium (DMEM) containing DMEM and 10% tetracycline-free fetal bovine serum (Cambrex) supplemented with blasticidin (5 μg/ml) geneticin (400 μg/ml) and hygromycin (100 μg/ml). Cells were grown and maintained at 37° C./5% CO2.
# Cells were cultured in a 75 cm^2 flask, harvested by trypsinisation and resuspended in DMEM medium. 100 μl of cells per well were added to a poly-L-lysine coated μClear 96-well plate, and incubated overnight. Expression of the TAS2R39 gene was then induced by the addition of 100 μl DMEM medium containing 0.5 μg/ml doxycyclin. After another 24-30 hrs the medium was removed and the cells were loaded for 1 hour with 50 μl Tyrodes buffer (140 mM NaCl, 5 mM KCl, 10 mM glucose, 1 mM CaCl2.2H2O, 1 mM MgCl2.6H2O, 20 mM HEPES pH 7.4 (Sigma P8761)) containing 2.5 μM of the fluorescent marker of calcium, Fluo4-AM, followed by a 1-hr incubation at 37° C. The cells were then washed with Tyrodes buffer and finally taken up in 100 μl, Tyrodes buffer.
# Test solutions containing 0.5 mM ECG and 10 mM of the test compounds, dissolved in Tyrodes buffer, were prepared and 100 μl of each test solution was added to the wells of the 96-well plate containing the cells. A comparative solution containing only 0.5 mM ECG dissolved in Tyrodes buffer was also prepared and 100 μl was added to a well of the 96-well plate containing the cells.
# Intracellular calcium levels were monitored using a Flexstation II 384. The 96-well plate was loaded onto the Flexstation II 384 and fluorescence measurements were carried out at 37° C. at an excitation wavelength of 485 nm and an emission wavelength of 520 nm. Activity of TA52R39 was measured as the change in fluorescence (ΔF) which was calculated by subtracting the […] measured before addition of the test or comparative solution.
# Inhibition of TAS2R39 activity was measured as the percentage reduction of ΔF in the presence of ECG alone, compared to ΔF in the presence of ECG plus a test compound. 3,4,5-trihydroxybenzoic acid (gallic acid) was included in the selection of the test compounds.
Compound,% inhibition of TAS2R39 [%],effectiveness as inhibitor of TAS2R39 compared with gallic acid
"COc1ccc(/C=C/C(=O)O)c(OC)c1 [2,4-dimethoxycinnamic acid]",40,more effective inhibitors of TAS2R39 than gallic acid
"COc1cccc(C(=O)O)c1O [2-hydroxy-3-methoxybenzoic acid, reference compound]",25,–
"COc1ccccc1C(=O)O [2-methoxybenzoic acid, reference compound]",10,–
"COc1ccccc1/C=C/C(=O)O [2-methoxycinnamic acid, reference compound]",0,–
"O=C(O)c1cc(O)c(O)c(O)c1 [3,4,5-trihydroxybenzoic acid, reference compound]",25,–
"COc1cc(C(=O)O)cc(OC)c1OC [3,4,5-trimethoxybenzoic acid, reference compound]",20,–
"COc1cc(/C=C/C(=O)O)cc(OC)c1OC [3,4,5-trimethoxycinnamic acid, 3,4,5-trimethoxycinnamic acid]",70,more effective inhibitors of TAS2R39 than gallic acid
"COc1cc(CC(=O)O)cc(OC)c1OC [3,4,5-trimethoxyphenylacetic acid, reference compound]",25,–
"O=C(O)c1ccc(O)c(O)c1 [3,4-dihydroxybenzoic acid, reference compound]",15,–
"O=C(O)/C=C/c1ccc(O)c(O)c1 [3,4-dihydroxycinnamic acid]",30,more effective inhibitors of TAS2R39 than gallic acid
"O=C(O)Cc1ccc(O)c(O)c1 [3,4-dihydroxyphenylacetic acid, reference compound]",15,–
"COc1ccc(C(=O)O)cc1OC [3,4-dimethoxybenzoic acid, reference compound]",10,–
"COc1ccc(/C=C/C(=O)O)cc1OC [3,4-dimethoxycinnamic acid]",–,more effective inhibitors of TAS2R39 than gallic acid
"COc1cc(/C=C/C(=O)O)cc(OC)c1 [3,5-dimethoxycinnamic acid, reference compound]",20,–
"COc1cc(CCC(=O)O)cc(OC)c1OC [3-(3,4,5-trimethoxyphenyl)propanoic acid]",35,more effective inhibitors of TAS2R39 than gallic acid
"O=C(O)CCc1ccc(O)c(O)c1 [3-(3,4-dihydroxyphenyl) propanoic acid, 3-(3,4-dihydroxyphenyl)propanoic acid]",30,more effective inhibitors of TAS2R39 than gallic acid
"COc1ccc(CCC(=O)O)cc1OC [3-(3,4-dimethoxyphenyl) propanoic acid, 3-(3,4-dimethoxyphenyl)propanoic acid]",35,more effective inhibitors of TAS2R39 than gallic acid
COc1cc(CCC(=O)O)ccc1O [3-(3-methoxy-4-hydroxyphenyl)propanoic acid],35,more effective inhibitors of TAS2R39 than gallic acid

Compound,% inhibition of TAS2R39 [%],effectiveness as inhibitor of TAS2R39 compared with gallic acid
"O=C(O)CCc1ccc(O)cc1 [3-(4-hydroxyphenyl) propanoic acid, reference compound]",25,–
"COc1ccc(CCC(=O)O)cc1 [3-(4-methoxyphenyl) propanoic acid, 3-(4-methoxyphenyl)propanoic acid]",40,more effective inhibitors of TAS2R39 than gallic acid
"COc1cc(/C=C/C(=O)O)ccc1O [3-methoxy-4-hydroxycinnamic acid, 3-methoxy-4-hydroxycinnamic acid]",65,more effective inhibitors of TAS2R39 than gallic acid
"COc1cccc(C(=O)O)c1 [3-methoxybenzoic add, reference compound]",5,–
"COc1cccc(/C=C/C(=O)O)c1 [3-methoxycinnamic acid, reference compound]",0,–
"O=C(O)/C=C/c1ccccc1 [3-phenyl propenoic acid (Cinnamic acid), 3-phenyl propenoic acid]",40,more effective inhibitors of TAS2R39 than gallic acid
"O=C(O)CCc1ccccc1 [3-phenylpropanoic acid, reference compound]",15,–
"COc1cc(/C=C/C(=O)O)cc(OC)c1O [4-hydroxy-3,5-dimethoxycinnamic acid, 4-hydroxy-3,5-dimethoxycinnamic acid]",65,more effective inhibitors of TAS2R39 than gallic acid
"O=C(O)c1ccc(O)cc1 [4-hydroxybenzoic acid, reference compound]",25,–
O=C(O)/C=C/c1ccc(O)cc1 [4-hydroxycinnamic acid],40,more effective inhibitors of TAS2R39 than gallic acid
"O=C(O)Cc1ccc(O)cc1 [4-hydroxyphenylacetic acid, reference compound]",20,–
"COc1ccc(C(=O)O)cc1 [4-methoxybenzoic acid, reference compound]",15,–
COc1ccc(/C=C/C(=O)O)cc1 [4-methoxycinnamic acid],30,more effective inhibitors of TAS2R39 than gallic acid
"COc1ccc(CC(=O)O)cc1 [4-methoxyphenylacetic acid, reference compound]",15,–
O=C(O)CCCc1ccccc1 [4-phenylbutanoic acid],40,more effective inhibitors of TAS2R39 than gallic acid
"O=C(O)Cc1ccccc1 [Phenylacetic acid, reference compound]",5,–
"N[C@@H](Cc1ccccc1)C(=O)O [Phenylalamine, reference compound]",0,–
Benzoic acid [reference compound],20,–
